Measured values published in BindingDB's records for doi:10.1111/j.1476-5381.1988.tb11723.x (Ciba-Geigy, 1988).
Where “and” joins values, the source holds several entries; their conditions need not be identical. Equal values may be shown once.

What follows are compounds tested against Glutamate receptor ionotropic, NMDA 1 (Rattus norvegicus, UniProt P35439).

Row | SMILES | Ki
1 | N[C@H](CC(=O)O)C(=O)O | 0.8 µM and 0.9 µM
2 | N[C@@H](Cn1oc(=O)[nH]c1=O)C(=O)O [2-amino-3-(3,5-dioxo[1,2,4]oxadiazolidin-2-yl)propionic acid] | > 10 µM
3 | N[C@H](CCCP(=O)(O)O)C(=O)O [CB3371309] | 0.35 µM and 0.4 µM
4 | O=C(O)[C@H]1CN(CCCP(=O)(O)O)CCN1 [CPP] | 0.22 µM and 0.15 µM
5 | NC(CCCCCP(=O)(O)O)C(=O)O (stereo not drawn) [DL-AP7] | 0.9 µM and 1.1 µM
6 | O=C(O)c1cccc(C(=O)O)n1 [Dipicolinate] | > 10 µM
7 | N[C@@H](CC(=O)O)C(=O)O [L-Aspartic acid, 2] | 1.4 µM and 1.6 µM
8 | CN[C@H](CC(=O)O)C(=O)O [NMDA] | 4.1 µM and 5.6 µM
9 | O=C(O)[C@@H]1C[C@H](CP(=O)(O)O)CCN1 [Selfotel] | 0.14 µM
10 | CCOC(=O)CC[C@H](N)C(=O)OCC [glutamic acid diethyl ester] | > 10 µM
11 | O=C(O)c1cccnc1C(=O)O [pyridine-2,3-dicarboxylic acid] | > 10 µM
